{"source": "patent US20070207952A1", "about": "“Long Acting Biologically Active Conjugates” (priority 2003, published 2007)", "key": {"HBX2 HIV-1": {"test_system": "HBX2 HIV-1", "experiment": "Antiviral cytotoxicity assay with MT4 cells, modified peptides and conjugates", "assay_type": "cell-based", "settings": "HBX2 HIV-1, MT4 cells; average of 2-3 experiments", "protocol": "(§1) Antiviral potency of the peptides was analyzed against HIV-1 HXB2 or NLA-3 strains using a cytotoxicity assay with MT4 cells as previously described (ref 1-3) with minor modifications. MT-4 cells (1.5×10^4/ml) were exposed to 200 50% tissue culture infective doses (TCID50) of viruses in the presence of various concentrations of test compound in 96 well microtiter plates and incubated at 37° C. for 5 days. Cytotoxicity of HIV was measured by the addition of 3-(4,5-dimethylthiazol-2-yl)-2,5-diphenytetrazolium bromide (MMI) solution to each well to a final concentration of 0.75 mg/ml, and incubation for 1 hour a 37° C. After incubation, cells were dissolved in isopropanoyrriton-X 100/HCl (1000:50:25) solution. Absorbance was monitored in a microplate reader (Spectramax, Molecular Devices) at 540 rm and 690 nm. MT-4 cells were obtained from the AIDS Research and Reference Reagent Program (ARRRP, Division of AIDS, NIAID, NIH: MT-4 from Dr. D. Richman). Cells were propagated in RPMI 1640 growth medium supplemented with 10% fetal bovine serum, 50U of penicillin and 50 μg of streptomycin per ml ([Ivitrogen, Carlsbad Calif.)."}, "HIV NL4-3": {"test_system": "HIV NL4-3", "experiment": "Antiviral cytotoxicity (MTT) assay with MT4 cells, HIV NL4-3", "assay_type": "cell-based, HIV-1", "settings": "MT-4 cells, 5 days, average of 2 or 3 experiments", "protocol": "as §1"}, "HIV-1 IIIB": {"test_system": "HIV-1 IIIB", "experiment": "Antiviral cytotoxicity (MTT) assay with MT4 cells, HIV-1 IIIB", "assay_type": "cell-based", "settings": "MT-4 cells, 5 days, average of 2 or 3 experiments"}, "[1]": {"settings": "Kilby et al 1998; cited from earlier work"}}, "note": "Where a SMILES comes first, the peptide text is derived from it. [ ]: non-standard residue; d: D form. The star is where a group is joined. Propanoyl(3-maleimido) = O=C1C=CC(=O)N1CCC(=O)*; Nle = CCCC[C@H](N)C(=O)O; AEEA = NCCOCCOCC(=O)O"}
{"compound": "CCCC[C@H](NC(=O)[C@H](Cc1c[nH]c2ccccc12)NC(=O)COCCOCCNC(=O)CCN1C(=O)C=CC1=O)C(=O)N[C@@H](CCC(=O)O)C(=O)N[C@@H](Cc1c[nH]c2ccccc12)C(=O)N[C@@H](CC(=O)O)C(=O)N[C@@H](CCCNC(=N)N)C(=O)N[C@@H](CCCCN)C(=O)N[C@H](C(=O)N[C@@H](CCC(=O)O)C(=O)N[C@@H](CCC(=O)O)C(=O)N[C@@H](Cc1ccc(O)cc1)C(=O)N[C@H](C(=O)N[C@@H](CCCCN)C(=O)N[C@@H](CCCCN)C(=O)N[C@H](C(=O)N[C@@H](CCCCN)C(=O)N[C@@H](CCCCN)C(=O)N[C@@H](CC(C)C)C(=O)N[C@H](C(=O)N[C@@H](CCC(=O)O)C(=O)N[C@@H](CCC(=O)O)C(=O)N[C@@H](CO)C(=O)N[C@@H](CCC(N)=O)C(=O)N[C@@H](CCC(=O)O)C(=O)N[C@@H](CCC(N)=O)C(=O)N[C@@H](CCC(N)=O)C(=O)N[C@@H](CCC(=O)O)C(=O)N[C@@H](CCCCN)C(=O)N[C@@H](CC(N)=O)C(=O)N[C@@H](CCC(=O)O)C(=O)N[C@@H](CCCCN)C(=O)N[C@@H](CCC(=O)O)C(=O)N[C@@H](CC(C)C)C(=O)N[C@@H](CCCCN)C(N)=O)[C@@H](C)CC)[C@@H](C)CC)[C@@H](C)O)[C@@H](C)CC", "note": "[SPI-70038] ({Propanoyl(3-maleimido)-AEEA}-W[Nle]EWDRKIEEYTKKIKKLIEESQEQQEKNEKELK-NH2)", "values": [{"measurement": "IC50", "setting": "HBX2 HIV-1", "value": 2, "unit": "nM"}]}
{"compound": "CCCC[C@H](NC(=O)[C@H](Cc1c[nH]c2ccccc12)NC(C)=O)C(=O)N[C@@H](CCC(=O)O)C(=O)N[C@@H](Cc1c[nH]c2ccccc12)C(=O)N[C@@H](CC(=O)O)C(=O)N[C@@H](CCCNC(=N)N)C(=O)N[C@@H](CCCCN)C(=O)N[C@H](C(=O)N[C@@H](CCC(=O)O)C(=O)N[C@@H](CCC(=O)O)C(=O)N[C@@H](Cc1ccc(O)cc1)C(=O)N[C@H](C(=O)N[C@@H](CCCCN)C(=O)N[C@@H](CCCCN)C(=O)N[C@H](C(=O)N[C@@H](CCCCN)C(=O)N[C@@H](CCCCN)C(=O)N[C@@H](CC(C)C)C(=O)N[C@H](C(=O)N[C@@H](CCC(=O)O)C(=O)N[C@@H](CCC(=O)O)C(=O)N[C@@H](CO)C(=O)N[C@@H](CCC(N)=O)C(=O)N[C@@H](CCC(=O)O)C(=O)N[C@@H](CC(C)C)C(=O)N[C@@H](CCC(N)=O)C(=O)N[C@@H](CCC(=O)O)C(=O)N[C@@H](CCCCN)C(=O)N[C@@H](CC(N)=O)C(=O)N[C@@H](CCC(=O)O)C(=O)N[C@@H](CCCCN)C(=O)N[C@@H](CCC(=O)O)C(=O)N[C@@H](CC(C)C)C(=O)N[C@@H](CCCCN)C(N)=O)[C@@H](C)CC)[C@@H](C)CC)[C@@H](C)O)[C@@H](C)CC", "note": "[peptide 7, Ac-WXEWDRKIEEYTKKIKKLIEESQELQEKNEKELK-NH2] (Ac-W[Nle]EWDRKIEEYTKKIKKLIEESQELQEKNEKELK-NH2)", "values": [{"measurement": "IC50", "setting": "HIV NL4-3", "value": 1.1, "unit": "nM"}, {"measurement": "IC50", "setting": "HIV-1 IIIB", "value": 2.4, "unit": "nM"}]}
{"compound": "CCCC[C@H](NC(=O)[C@H](Cc1c[nH]c2ccccc12)NC(C)=O)C(=O)N[C@@H](CCC(=O)O)C(=O)N[C@@H](Cc1c[nH]c2ccccc12)C(=O)N[C@@H](CC(=O)O)C(=O)N[C@@H](CCCNC(=N)N)C(=O)N[C@@H](CCCCN)C(=O)N[C@H](C(=O)N[C@@H](CCC(=O)O)C(=O)N[C@@H](CCC(=O)O)C(=O)N[C@@H](Cc1ccc(O)cc1)C(=O)N[C@H](C(=O)N[C@@H](CCCCN)C(=O)N[C@@H](CCCCN)C(=O)N[C@H](C(=O)N[C@@H](CCCCN)C(=O)N[C@@H](CCCCN)C(=O)N[C@@H](CC(C)C)C(=O)N[C@H](C(=O)N[C@@H](CCC(=O)O)C(=O)N[C@@H](CCC(=O)O)C(=O)N[C@@H](C)C(=O)N[C@@H](CCC(N)=O)C(=O)N[C@@H](CCC(=O)O)C(=O)N[C@@H](CCC(N)=O)C(=O)N[C@@H](CCC(N)=O)C(=O)N[C@@H](CCC(=O)O)C(=O)N[C@@H](CCCCN)C(=O)N[C@@H](CC(N)=O)C(=O)N[C@@H](CCC(=O)O)C(=O)N[C@@H](CCCCN)C(=O)N[C@@H](CCC(=O)O)C(=O)N[C@@H](CC(C)C)C(=O)N[C@@H](CCCCN)C(N)=O)[C@@H](C)CC)[C@@H](C)CC)[C@@H](C)O)[C@@H](C)CC", "note": "[peptide 8, Ac-WXEWDRKIEEYTKKIKKLIEEAQEQQEKNEKELK-NH2] (Ac-W[Nle]EWDRKIEEYTKKIKKLIEEAQEQQEKNEKELK-NH2)", "values": [{"measurement": "IC50", "setting": "HIV NL4-3", "value": 1.2, "unit": "nM"}, {"measurement": "IC50", "setting": "HIV-1 IIIB", "value": 2.6, "unit": "nM"}]}
{"compound": "CCCC[C@H](NC(=O)[C@H](Cc1c[nH]c2ccccc12)NC(C)=O)C(=O)N[C@@H](CCC(=O)O)C(=O)N[C@@H](Cc1c[nH]c2ccccc12)C(=O)N[C@@H](CC(=O)O)C(=O)N[C@@H](CCCNC(=N)N)C(=O)N[C@@H](CCCCN)C(=O)N[C@H](C(=O)N[C@@H](CCC(=O)O)C(=O)N[C@@H](CCC(=O)O)C(=O)N[C@@H](Cc1ccc(O)cc1)C(=O)N[C@H](C(=O)N[C@@H](CCCCN)C(=O)N[C@@H](CCCCN)C(=O)N[C@H](C(=O)N[C@@H](CCC(=O)O)C(=O)N[C@@H](CCC(=O)O)C(=O)N[C@@H](CC(C)C)C(=O)N[C@H](C(=O)N[C@@H](CCCCN)C(=O)N[C@@H](CCCCN)C(=O)N[C@@H](CO)C(=O)N[C@@H](CCC(N)=O)C(=O)N[C@@H](CCC(=O)O)C(=O)N[C@@H](CCC(N)=O)C(=O)N[C@@H](CCC(N)=O)C(=O)N[C@@H](CCC(=O)O)C(=O)N[C@@H](CCCCN)C(=O)N[C@@H](CC(N)=O)C(=O)N[C@@H](CCC(=O)O)C(=O)N[C@@H](CCCCN)C(=O)N[C@@H](CCC(=O)O)C(=O)N[C@@H](CC(C)C)C(=O)N[C@@H](CCCCN)C(N)=O)[C@@H](C)CC)[C@@H](C)CC)[C@@H](C)O)[C@@H](C)CC", "note": "[peptide 9, Ac-WXEWDRKIEEYTKKIEELIKKSQEQQEKNEKELK-NH2] (Ac-W[Nle]EWDRKIEEYTKKIEELIKKSQEQQEKNEKELK-NH2)", "values": [{"measurement": "IC50", "setting": "HIV NL4-3", "value": 0.9, "unit": "nM"}, {"measurement": "IC50", "setting": "HIV-1 IIIB", "value": 1.7, "unit": "nM"}]}
{"compound": "CCCC[C@H](NC(=O)[C@H](Cc1c[nH]c2ccccc12)NC(C)=O)C(=O)N[C@@H](CCC(=O)O)C(=O)N[C@@H](Cc1c[nH]c2ccccc12)C(=O)N[C@@H](CC(=O)O)C(=O)N[C@@H](CCCNC(=N)N)C(=O)N[C@@H](CCCCN)C(=O)N[C@H](C(=O)N[C@@H](CCC(=O)O)C(=O)N[C@@H](CCC(=O)O)C(=O)N[C@@H](Cc1ccc(O)cc1)C(=O)N[C@H](C(=O)N[C@@H](CCCCN)C(=O)N[C@@H](CCCCN)C(=O)N[C@H](C(=O)N[C@@H](CCC(=O)O)C(=O)N[C@@H](CCC(=O)O)C(=O)N[C@@H](CC(C)C)C(=O)N[C@H](C(=O)N[C@@H](CCCCN)C(=O)N[C@@H](CCCCN)C(=O)N[C@@H](C)C(=O)N[C@@H](CCC(N)=O)C(=O)N[C@@H](CCC(=O)O)C(=O)N[C@@H](CCC(N)=O)C(=O)N[C@@H](CCC(N)=O)C(=O)N[C@@H](CCC(=O)O)C(=O)N[C@@H](CCCCN)C(=O)N[C@@H](CC(N)=O)C(=O)N[C@@H](CCC(=O)O)C(=O)N[C@@H](CCCCN)C(=O)N[C@@H](CCC(=O)O)C(=O)N[C@@H](CC(C)C)C(=O)N[C@@H](CCCCN)C(N)=O)[C@@H](C)CC)[C@@H](C)CC)[C@@H](C)O)[C@@H](C)CC", "note": "[peptide 11, Ac-WXEWDRKIEEYTKKIEELIKKAQEQQEKNEKELK-NH2] (Ac-W[Nle]EWDRKIEEYTKKIEELIKKAQEQQEKNEKELK-NH2)", "values": [{"measurement": "IC50", "setting": "HIV NL4-3", "value": 1.1, "unit": "nM"}, {"measurement": "IC50", "setting": "HIV-1 IIIB", "value": 2.1, "unit": "nM"}]}
{"compound": "enfuvirtide", "values": [{"measurement": "IC50", "setting": "HIV NL4-3", "value": 120, "unit": "nM"}, {"measurement": "IC50", "setting": "HIV-1 IIIB", "value": 4.7, "unit": "nM"}, {"measurement": "half-life", "setting": "[1]", "value": 1.8, "unit": "h"}]}
